Measurements: ChEMBL document CHEMBL1649264, “ATP synthase inhibition of Mycobacterium avium is not bactericidal” (2009)
In brackets after ≈: the same amount, converted by molar mass. Several values for one entry are separate records, joined by “and”; a condition that tells them apart may be missing. Equal values may be shown once.

Columns and labels:
Format in all cases: functional
[1] = test system: Mycobacterium avium; experiment: Antitubercular activity against Mycobacterium avium infected in C57BL/6J mouse assessed as reduction of CFU counts in spleen at 200 mg/kg, po administered one day post-infection five times weekly for 1 month (reference value: 8.0 +/- 0.9 log10CFU)
[2] = test system: Mycobacterium avium; experiment: Antitubercular activity against Mycobacterium avium infected in C57BL/6J mouse assessed as reduction of CFU counts in spleen at 200 mg/kg, po administered one month post-infection five times weekly for 1 month (reference value: 7.4 +/- 1.7 log10CFU)
[3] = test system: Mycobacterium avium; experiment: Antitubercular activity against Mycobacterium avium infected in C57BL/6J mouse assessed as reduction of CFU counts in spleen at 150 mg/kg, sc administered one month post-infection five times weekly for 2 months (reference value: 9.4 +/- 0.2 log10CFU); details: route subcutaneous
[4] = test system: Mycobacterium avium; experiment: Antitubercular activity against Mycobacterium avium infected in C57BL/6J mouse assessed as reduction of CFU counts in spleen at 200 mg/kg, po administered one month post-infection five times weekly for 4 months (reference value: 8.9 +/- 0.3 log10CFU)
[5] = test system: Mycobacterium avium; experiment: Antitubercular activity against Mycobacterium avium infected in C57BL/6J mouse assessed as reduction of CFU counts in spleen at 25 mg/kg, po administered one month post-infection five times weekly for 3 months (reference value: 7.9 +/- 0.7 log10CFU)
[6] = test system: Mycobacterium avium; experiment: Antitubercular activity against Mycobacterium avium infected in C57BL/6J mouse assessed as reduction of CFU counts in spleen at 25 mg/kg, po administered one month post-infection five times weekly for 1 month (reference value: 7.4 +/- 1.7 log10CFU)
[7] = test system: Mycobacterium avium; experiment: Antitubercular activity against Mycobacterium avium infected in C57BL/6J mouse assessed as reduction of CFU counts in spleen at 25 mg/kg, po administered one month post-infection five times weekly for 4 months (reference value: 8.9 +/- 0.3 log10CFU)
[8] = test system: Mycobacterium avium; experiment: Antitubercular activity against Mycobacterium avium infected in C57BL/6J mouse assessed as reduction of CFU counts in spleen at 150 mg/kg, sc administered one month post-infection five times weekly for 3 months (reference value: 7.9 +/- 0.7 log10CFU); details: route subcutaneous
[9] = test system: Mycobacterium avium; experiment: Antimicrobial activity against Mycobacterium avium
[10] = test system: Mycobacterium avium; experiment: Antitubercular activity against Mycobacterium avium infected in C57BL/6J mouse assessed as reduction of CFU counts in spleen at 25 mg/kg, po administered one day post-infection five times weekly for 1 month (reference value: 8.0 +/- 0.9 log10CFU)
[11] = test system: Mycobacterium avium; experiment: Antitubercular activity against Mycobacterium avium infected in C57BL/6J mouse assessed as reduction of CFU counts in spleen at 200 mg/kg, po administered one month post-infection five times weekly for 2 months (reference value: 9.4 +/- 0.2 log10CFU)
[12] = test system: Mycobacterium tuberculosis; experiment: Antimicrobial activity against Mycobacterium tuberculosis
[13] = test system: Mycobacterium avium; experiment: Antitubercular activity against Mycobacterium avium infected in C57BL/6J mouse assessed as reduction of CFU counts in spleen at 150 mg/kg, sc administered one month post-infection five times weekly for 4 months (reference value: 8.9 +/- 0.3 log10CFU); details: route subcutaneous
[14] = test system: Mycobacterium avium; experiment: Antitubercular activity against Mycobacterium avium infected in C57BL/6J mouse assessed as reduction of CFU counts in spleen at 200 mg/kg, po administered one month post-infection five times weekly for 3 months (reference value: 7.9 +/- 0.7 log10CFU)
[15] = test system: Mycobacterium avium; experiment: Antitubercular activity against Mycobacterium avium infected in C57BL/6J mouse assessed as reduction of CFU counts in spleen at 150 mg/kg, sc administered one month post-infection five times weekly for 1 month (reference value: 7.4 +/- 1.7 log10CFU); details: route subcutaneous
[16] = test system: Mycobacterium avium; experiment: Antitubercular activity against Mycobacterium avium infected in C57BL/6J mouse assessed as reduction of CFU counts in spleen at 25 mg/kg, po administered one month post-infection five times weekly for 2 months (reference value: 9.4 +/- 0.2 log10CFU)

With CC[C@H]1OC(=O)[C@H](C)[C@@H](O[C@H]2C[C@@](C)(OC)[C@@H](O)[C@H](C)O2)[C@H](C)[C@@H](O[C@@H]2O[C@H](C)C[C@H](N(C)C)[C@H]2O)[C@](C)(OC)C[C@@H](C)C(=O)[C@H](C)[C@@H](O)[C@]1(C)O [CLARITHROMYCIN] as the molecule, how does the log10cfu [1] read?
The log10cfu was 6.

What about the log10cfu [2] of the same molecule?
Its log10cfu is 6.6.

What about the log10cfu [3] of the same molecule?
The log10cfu was 5.

And the log10cfu [4]?
The log10cfu was 7.2.

What about the log10cfu [5] of the same molecule?
Its log10cfu is 6.2.

What does the source list for COc1nc2ccc(Br)cc2cc1[C@@H](c1ccccc1)[C@@](O)(CCN(C)C)c1cccc2ccccc12 [BEDAQUILINE]?
log10cfu [6]: 6.5; log10cfu [7]: 6.5; log10cfu [8]: 6.6; MIC [9]: 0.007 mg/L and 0.015 mg/L; log10cfu [10]: 5.4; log10cfu [11]: 7.7; MIC [12]: 0.06 mg/L (≈ 0.108 µM)

With NCC[C@H](O)C(=O)N[C@@H]1C[C@H](N)[C@@H](O[C@H]2O[C@H](CN)[C@@H](O)[C@H](O)[C@H]2O)[C@H](O)[C@H]1O[C@H]1O[C@H](CO)[C@@H](O)[C@H](N)[C@H]1O [AMIKACIN] as the molecule, how does the log10cfu [13] read?
The log10cfu was 3.5.

What about the log10cfu [14] of the same molecule?
Its log10cfu is 7.2.

And the log10cfu [15]?
Its log10cfu is 5.9.

And the log10cfu [16]?
Its log10cfu is 6.7.
